From PubChem BioAssay (NCI) come the findings set out here.

Test systems include SK-MEL-2 melanoma; NCI-H522 lung; RPMI-8226 leukemia; OVCAR-3 ovarian; OVCAR-8 ovarian; HT29 colon; UACC-257 melanoma; HS 578T breast; NCI-H226 lung; EKVX NSCLC.
What all share (experiment): inhibition of tumour cell growth, NCI panel, 48 h

Structures are written as SMILES.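 In this assay, cells in 96-well plates receive the compound at five concentrations for 48 hours. Endpoints are linearly interpolated between the surrounding concentrations. GI50 marks 50% less growth. TGI: total growth inhibition.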

With `O=C(O)CP(=O)(c1ccccc1)c1ccccc1.O=C(O)CP(=O)(c1ccccc1)c1ccccc1.[Cd]`, the GI50 is 19.6 µM with SK-MEL-2 melanoma; 0.403 µM with NCI-H522 lung; 0.277 µM in the assay with RPMI-8226 leukemia; 2.56 µM in the assay with OVCAR-3 ovarian; 32.7 µM with OVCAR-8 ovarian; 18 µM in the assay with HT29 colon. Besides, the GI50 was 15.4 µM in the assay with UACC-257 melanoma, 19.4 µM in the assay with HS 578T breast and 12.7 µM in the assay with NCI-H226 lung. In addition, the TGI in the assay on SK-MEL-2 melanoma was 75.3 µM; with NCI-H522 lung, 2.77 µM; with RPMI-8226 leukemia it was 0.991 µM; in the assay with OVCAR-3 ovarian it was 15.4 µM; with OVCAR-8 ovarian, over 100 µM; in the assay with HT29 colon it was 37.3 µM. Moreover, the TGI is 31.4 µM in the assay with UACC-257 melanoma, over 100 µM in the assay with HS 578T breast and 28.6 µM in the assay on NCI-H226 lung.
Turning to `COc1cc(C2C(C(=O)OCc3ccccc3)=C(C)NC(C)=C2C(=O)OCc2ccccc2)cc(OC)c1OC`, the GI50 in the assay with NCI-H522 lung was 3.57 µM; with RPMI-8226 leukemia, 2.09 µM; in the assay with OVCAR-3 ovarian, 4.99 µM; in the assay on OVCAR-8 ovarian, 4.52 µM; in the assay on HT29 colon, 3.35 µM; in the assay with EKVX NSCLC, 2.81 µM. For the same compound, the GI50 in the assay with UACC-257 melanoma was 3.82 µM; with HS 578T breast, 5.61 µM; in the assay on NCI-H226 lung it was 2.41 µM. In addition, the TGI with NCI-H522 lung, in the assay with RPMI-8226 leukemia, with OVCAR-3 ovarian, in the assay on OVCAR-8 ovarian, in the assay with HT29 colon and with EKVX NSCLC was over 100 µM each time. Besides, the TGI in the assay on UACC-257 melanoma, with HS 578T breast and in the assay on NCI-H226 lung was over 100 µM in each case.
Regarding `COc1ccc(N2C(=O)C3c4[nH]c5cc(Cl)ccc5c4C4CCC(C(C)(C)C)CC4C3C2=O)cc1` (stereo not drawn), the TGI in the assay on NCI-H522 lung, in the assay with RPMI-8226 leukemia, in the assay on OVCAR-3 ovarian, in the assay with OVCAR-8 ovarian, with HT29 colon and in the assay on EKVX NSCLC was over 100 µM each time. Also, the TGI in the assay on UACC-257 melanoma, with HS 578T breast and with NCI-H226 lung was over 100 µM each time.
With `CCCN(CCC)c1ccc(/C=N/NC(=O)c2cccnc2)cc1`, the GI50 in the assay with NCI-H522 lung was 16.6 µM; in the assay on RPMI-8226 leukemia, 80.5 µM; with OVCAR-3 ovarian, 20.1 µM; with OVCAR-8 ovarian, 31.3 µM; with HT29 colon, 11 µM; with EKVX NSCLC, 26.8 µM. Further, the GI50 was 31 µM with UACC-257 melanoma, 22 µM in the assay with HS 578T breast and 47.6 µM in the assay with NCI-H226 lung. Moreover, the TGI is 46.8 µM in the assay on NCI-H522 lung; over 100 µM in the assay with RPMI-8226 leukemia; 45.3 µM with OVCAR-3 ovarian; over 100 µM in the assay with OVCAR-8 ovarian; 32 µM with HT29 colon; over 100 µM in the assay on EKVX NSCLC. The TGI with UACC-257 melanoma is over 100 µM; in the assay with HS 578T breast, 87.1 µM; in the assay on NCI-H226 lung, over 100 µM.
Turning to `Nc1nc(Cl)nc2c1ncn2C1CCC(COP(=O)(O)OP(=O)(O)OP(=O)(O)O)O1` (stereo not drawn), the TGI was over 100 µM with NCI-H522 lung; over 100 µM in the assay on OVCAR-3 ovarian; 51.9 µM in the assay with OVCAR-8 ovarian; 90.9 µM in the assay on HT29 colon; over 100 µM in the assay with EKVX NSCLC; over 100 µM with UACC-257 melanoma. Further, the TGI in the assay on HS 578T breast and in the assay with NCI-H226 lung was over 100 µM throughout.
For the compound `O=C1CCCCCCCCCCC1CN(Cc1ccccc1)Cc1ccccc1` (stereo not drawn), the TGI in the assay on NCI-H522 lung, in the assay with RPMI-8226 leukemia, with OVCAR-3 ovarian, with OVCAR-8 ovarian, with EKVX NSCLC and in the assay on UACC-257 melanoma was over 100 µM in each case. For the same compound, the TGI in the assay with HS 578T breast and with NCI-H226 lung was over 100 µM each time.
Consider `Cc1cc2c(=O)c3ccccc3oc2c(C#N)c1C`, for which the TGI in the assay with RPMI-8226 leukemia, with OVCAR-8 ovarian, in the assay on HT29 colon, in the assay on EKVX NSCLC, in the assay on UACC-257 melanoma and in the assay on HS 578T breast was over 100 µM each time.
In the case of `Cc1ccc(C)c(N2C(=O)C(=O)c3c(C)ccc(C)c32)c1`, the TGI is 68.4 µM with SK-MEL-2 melanoma; 38.6 µM with NCI-H522 lung; 34.1 µM in the assay with OVCAR-3 ovarian; 51.5 µM with OVCAR-8 ovarian; 46.4 µM with HT29 colon; over 100 µM with EKVX NSCLC. The TGI in the assay on UACC-257 melanoma was 48.2 µM; in the assay on HS 578T breast, 63.4 µM; with NCI-H226 lung, over 100 µM.
On to `CNc1ccc(C(=O)CC(O)CCC(C)C2OC(=O)CC(O)CC(=O)CC(O)CC(O)CC(O)CC(O)CC3(O)CC(O)C(C(=O)NCCc4ccccn4)C(CC(OC4OC(C)C(O)C(N)C4O)/C=C/C=C/C=C/C=C\C=C/C=C/C=C/C2C)O3)cc1` (stereo not drawn), for which the TGI is over 50 µM in the assay on SK-MEL-2 melanoma; over 50 µM with NCI-H522 lung; over 50 µM in the assay with RPMI-8226 leukemia; 2.16 µM in the assay with OVCAR-3 ovarian; over 50 µM with HT29 colon; 0.49 µM in the assay with EKVX NSCLC. For the same compound, the figures for the TGI in the assay with HS 578T breast and with NCI-H226 lung were 2.61 µM and 9.71 µM, respectively. Moreover, the GI50 is 4.21 µM with NCI-H522 lung; 0.823 µM in the assay on RPMI-8226 leukemia; 0.643 µM in the assay on OVCAR-3 ovarian; 0.747 µM in the assay on OVCAR-8 ovarian; 2.65 µM with HT29 colon; 0.134 µM in the assay on EKVX NSCLC. In addition, the GI50 was 0.489 µM with HS 578T breast and 2.29 µM in the assay with NCI-H226 lung.
In the case of `Cc1nn(-c2ccccc2)c(C)c1/C=N/N1CCN(Cc2ccccc2)CC1`, the GI50 in the assay with SK-MEL-2 melanoma was 60.7 µM; in the assay with NCI-H522 lung it was 78.5 µM; in the assay on RPMI-8226 leukemia it was 19.9 µM; in the assay on OVCAR-8 ovarian, over 100 µM; with HT29 colon, 43 µM; in the assay on EKVX NSCLC, over 100 µM. Moreover, the GI50 was 63 µM in the assay on UACC-257 melanoma, over 100 µM in the assay on HS 578T breast and 27.8 µM in the assay with NCI-H226 lung. Also, the TGI in the assay with SK-MEL-2 melanoma is over 100 µM; in the assay on NCI-H522 lung, over 100 µM; in the assay on RPMI-8226 leukemia it was 48.9 µM; in the assay with OVCAR-8 ovarian it was over 100 µM; in the assay on HT29 colon, over 100 µM; in the assay with EKVX NSCLC, over 100 µM. Also, the TGI with UACC-257 melanoma is over 100 µM; in the assay on HS 578T breast it was over 100 µM; in the assay on NCI-H226 lung, 96.2 µM.
